Data from patent publication US20250270173A1, “PYRIDINE DERIVATIVES FOR TREATING PSYCHIATRIC DISORDERS” (GILGAMESH PHARMACEUTICALS, INC., priority 2022, published 2025).
Values joined by “and” are separate entries in the source; they are usually repeats but may differ in a detail not shown here. Identical values can stand only once. Like-named read-outs stand apart in the source and are kept apart here.

How the values were obtained:
5-HT1A receptor = 5-HT1A receptor (Homo sapiens (Human), UniProt P08908); assay: FLIPR Ca2+ flux functional assay at 5-HT1A (CHO cells); settings: for 5-HT1A % Act @ Max Conc.: Ca2+ flux, CHO cells, at max concentration
5-HT2A receptor [1] = molecular target: T1, 5-HT2A receptor (Homo sapiens (Human), UniProt P28223); assay: 5-HT2A receptor radioligand binding with [3H]ketanserin; settings: read-out: Ki at 5-HT2A Receptor (nM) ([3H]ketanserin); HEK293 stable cell line, 1 nM [3H]ketanserin, 1 h, 25 °C
human 5-HT2C receptor = human 5-HT2C receptor (Homo sapiens (Human), UniProt P28335); assay: FLIPR Ca2+ flux functional assay at 5-HT2C (Eurofins DiscoverX); format: cell-based; settings: Ca2+ flux, human 5-HT2C; for 5-HT2C % Act @ Max Conc.: at max concentration; for EC50: read-out: 5-HT2C EC50
Procedure: Functional Assays at 5-HT2C Receptors. […] Probenecid was prepared fresh. Cells were loaded with dye prior to testing and incubated at 37° C. for 30-60 minutes. After dye loading, cells were removed from the incubator and 10 μL HBSS/20 mM Hepes was added. 3× vehicle was included in the assay buffer. Cells were incubated for 30 mins at room temperature in the dark to equilibrate plate temperature. Intermediate dilution of sample stocks was performed to generate 4× sample in assay buffer. Compound agonist activity was measured on a FLIPR Tetra (MDS). Calcium mobilization was monitored for 2 minutes and 10 μL 4× sample in HBSS/20 mM Hepes was added to the cells 5 seconds into the assay.

5-HT2A receptor [2] = molecular target: T1, 5-HT2A receptor; assay: FLIPR Ca2+ flux functional assay at 5-HT2A (HEK293); settings: for 5-HT2A % Act @ Max Conc.: Ca2+ flux, HEK293, at max concentration
5-HT2B receptor = 5-HT2B receptor (Homo sapiens (Human), UniProt P41595); assay: FLIPR Ca2+ flux functional assay at 5-HT2B (HEK293); settings: for 5-HT2B % Act @ Max Conc.: HEK293, at max concentration
C57BL/6 mice [3] = assay: Manual head twitch response (HTR) assay in mice; format: in vivo; settings: SC; for ED50: 20 min observation
Procedure: Agonists of the 5-HT2A receptor are well known to induce this effect in rodents and the potency of this HTR is correlated with hallucinogenic potency in humans.
(§1) Animals. Adult male C57BL/6 mice aged 8-10 weeks (body weight 20-25 g) were used in these experiments. Animals were housed under controlled temperatures and 12-hour light/dark cycles (lights on between 07:00-19:00 h), with ad libitum food and water. The protocol was approved by the Institutional Animal Care and Use Committee at the study site. This study was carried out in strict accordance with the recommendations in the Guide for the Care and Use of Laboratory Animals of the National Institutes of Health. All efforts were made to minimize suffering.
Drugs and Drug administration. DOI was commercially obtained. All other compounds were synthesized as described above. All drugs were administered subcutaneously (SC) dissolved in saline vehicle (or saline acidified with 1-2 molar equivalents HCl to form the salt in situ for freebase compounds) and at a volume of 10 mL/kg. Drugs were administered at 4 or 5 doses per compound, using n=6 animals/group. Doses were calculated on the basis of the freebase form, except for DOT, which was calculated based on the HCl salt.
Procedure. Mice were administered one dose of the drug (or vehicle) SC and immediately placed into a small open field for behavioral observation. Animals were observed continuously for 20 mins and the number of head twitches (HTs) were counted by an observer blind to the treatment condition.
(§2) Statistical Analysis. Analysis was performed using GraphPad Prism 9. Dose-response curves were fit via non-linear regression using the Gaussian 2020 function in Prism in order to determine the ED50 and Emax for each compound.

C57BL/6 mice [4] = assay: Automated (video tracking) head twitch response (HTR) assay in mice; format: in vivo; settings: SC; for Most Efficacious Dose; mg/kg: dose giving the most HTR
Procedure: Disclosed compounds were tested for their ability to induce a head twitch response (HTR) in mice using an automated video tracking procedure, with the results summarized in Table 5. […] The phenyl Compound 44 was substantially more efficacious at inducing HTR than its pyridine counterpart Compound 29, in agreement with the generally lower maximal efficacy of the disclosed pyridine compounds for signaling through 5-HT2A receptors.
as §1
Drugs and Drug Administration. […] was commercially obtained. Disclosed compounds were synthesized as described above. They were administered subcutaneously (SC) dissolved in saline (or saline acidified with 1-2 molar equivalents HCl to form the salt in situ for freebase compounds) at a volume of 10 mL/kg. Five doses were tested, with N=5-8 animals/group. Doses were calculated on the basis of the freebase, except for DOI, which was calculated based on the HCl salt.
Procedure. Mice were administered one dose of the drug and immediately placed into a small open field for behavioral observation. High-speed video of animals' behavior was captured continuously for 20 min. Video recordings were imported into an image processing software, which detects multiple points of interest on each animal's body, including the left and right ear. HTR events were defined as periodic deviations of ear locations from temporally averaged ear locations. Predefined thresholds for magnitude and frequency of location deviations were used to filter […] events from random head movements. The method was validated by comparing detected events with manual (human) observations and found to have an accuracy >95%. The total number of HTR events counted during the 20-min recording were determined for each animal at each dose.
as §2

Chain of 5-HT2B receptor (P41595 whole entry, looked up): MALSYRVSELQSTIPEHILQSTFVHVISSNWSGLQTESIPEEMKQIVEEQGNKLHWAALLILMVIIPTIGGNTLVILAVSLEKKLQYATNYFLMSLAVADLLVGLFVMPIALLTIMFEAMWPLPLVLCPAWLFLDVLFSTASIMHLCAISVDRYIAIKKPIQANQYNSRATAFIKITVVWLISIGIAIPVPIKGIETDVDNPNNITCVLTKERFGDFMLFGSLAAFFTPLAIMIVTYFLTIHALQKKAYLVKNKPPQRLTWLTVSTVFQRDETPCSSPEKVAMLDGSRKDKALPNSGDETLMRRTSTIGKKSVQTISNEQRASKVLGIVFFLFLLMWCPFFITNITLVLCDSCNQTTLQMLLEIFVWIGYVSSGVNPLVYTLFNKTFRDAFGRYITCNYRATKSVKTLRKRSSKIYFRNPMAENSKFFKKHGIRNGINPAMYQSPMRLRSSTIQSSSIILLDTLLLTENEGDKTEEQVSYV
Chain of human 5-HT2C receptor (P28335 whole entry, looked up): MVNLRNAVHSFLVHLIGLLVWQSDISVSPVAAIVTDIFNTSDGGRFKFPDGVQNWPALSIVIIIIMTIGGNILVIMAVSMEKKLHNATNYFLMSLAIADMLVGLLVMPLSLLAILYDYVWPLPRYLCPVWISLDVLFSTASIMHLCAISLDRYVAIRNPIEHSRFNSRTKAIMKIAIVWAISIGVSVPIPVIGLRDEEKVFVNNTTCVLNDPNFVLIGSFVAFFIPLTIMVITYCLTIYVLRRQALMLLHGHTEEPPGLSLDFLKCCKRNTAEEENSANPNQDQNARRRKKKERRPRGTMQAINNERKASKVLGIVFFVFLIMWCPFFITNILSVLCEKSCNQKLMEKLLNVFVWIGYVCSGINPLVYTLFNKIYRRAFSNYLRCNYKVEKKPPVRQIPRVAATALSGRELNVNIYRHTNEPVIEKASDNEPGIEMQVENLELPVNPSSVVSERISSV

Compound	EC50 (5-HT1A receptor) [nM]	5-HT1A % Act @ Max Conc. (5-HT1A receptor) [%]	Ki (5-HT2A receptor [1]) [nM]	5-HT2C % Act @ Max Conc. (human 5-HT2C receptor) [%]	EC50 (human 5-HT2C receptor) [nM]	EC50 (5-HT2A receptor [2]) [nM]	5-HT2A % Act @ Max Conc. (5-HT2A receptor [2])	5-HT2B % Act @ Max Conc. (5-HT2B receptor; Ca2+ flux) [%]	ED50 (C57BL/6 mice [3]; Mus musculus, 20 min, read-out: ED50) [mg/kg]	Emax (HTR counts/20 min) (C57BL/6 mice [3])	# HTR/20 min at Most Efficacious Dose (C57BL/6 mice [4]) [HTR/20 min]	Most Efficacious Dose; mg/kg (C57BL/6 mice [4])	EC50 (5-HT2B receptor) [nM]	Emax (HTR counts/20 min) (C57BL/6 mice [4])	ED50 (C57BL/6 mice [4]; 20 min recording) [mg/kg]	EC50 (5-HT2B receptor; read-out: 5-HT2B EC50, Ca2+ flux, HEK293) [nM]	ED50 (C57BL/6 mice [3]) [mg/kg]
CCCCCc1cc(OC)c(CC(N)CC)nc1OC (stereo not drawn) [Compound 1, 1-(3,6-dimethoxy-5-pentylpyridin-2-yl)butan-2-amine]	20200	188	40	44.38	5470	115	25% and 25.3%	0.18	0.897	18.78	–	–	–	–	–	–	–
CCC(N)Cc1nc(OC)c(Cl)cc1OC (stereo not drawn) [Compound 18, 1-(5-chloro-3,6-dimethoxypyridin-2-yl)butan-2-amine]	> 100000	1.33	1200	36.76	2250	370	70.92%	2.75	–	–	33.12	(10) mg/kg	> 10000	–	–	–	–
COc1cc(CC(C)N)c(OC)cc1I (stereo not drawn) [DOI, reference compound]	–	−2.47	–	92.6	0.818	–	106%	86.3	–	35.7	81.5	(3.2) mg/kg	–	82.02	0.531	4.88	0.428
